Data: US20050256034A1, “Dioxolane analogs for improved inter-cellular delivery” (priority 2000, published 2005)
Where a name gives a salt, the structure may show the parent alone. Read-outs that look alike come from different tables or passages of the source.

Assay: 3H-Thymidine Incorporation Assay (24 hr drug, wash, another 48 hr; 72 hr assay)
Type: cell-based
Details: for Factor (Resistance Factor = Ratio of dCK- on Wild-type CCRF-CEM): ratio of IC50 CEM/dCK- to IC50 CCRF-CEM, 24 h exposure
[1] = NCI-H460, read-out: IC50 in μM (3H-TdR incorporation at 72 hr) H-460 24 h, H-460 human lung carcinoma, 24 h exposure to drug, wash, another 48 hr
[2] = CCRF-CEM, read-out: IC50 in μM (3H-TdR incorporation at 72 hr) CEM/dCK- 24 h, CEM/dCK- (CCRF-CEM deoxycytidine kinase-deficient), 24 h exposure to drug, wash, another 48 hr

Structure (SMILES): CCC(C)(C)OC(C)OC[C@H]1OC[C@@H](n2ccc(N)nc2=O)O1 (mixture of isomers) [Compound 117, 4-AMINO-1-{2-[1-(1,1-DI- METHYL-PROPOXY)-ETH- OXYMETHYL]-[1,3]DI- OXOLAN-4-YL}-1H-PYRI- MIDIN-2-ONE]
- Factor (Resistance Factor = Ratio of dCK- on Wild-type CCRF-CEM): 494

Structure (SMILES): CC(=O)OC[C@H]1OC[C@@H](n2ccc(N)nc2=O)O1 [Compound 27]
- IC50 (NCI-H460, read-out: IC50 in μM (3H-TdR incorporation at 72 hr) H-460 (72 h), H-460 human lung carcinoma, 72 h exposure): 0.0053 µM

Structure (SMILES): Nc1ccn([C@@H]2CO[C@H](COC3CCCCO3)O2)c(=O)n1 (stereo partly shown) [Compound 41, 4-AMINO-1-[2-(TETRA- HYDRO-PYRAN-2-YLOXY- METHYL)-[1,3]DI- OXOLAN-4-YL]-1H-PYRI- MIDIN-2-ONE]
- Factor (Resistance Factor = Ratio of dCK- on Wild-type CCRF-CEM): 5

Structure (SMILES): O=C(Nc1ccn([C@@H]2CO[C@H](COC(=O)Oc3ccccc3)O2)c(=O)n1)Oc1ccccc1 [Compound 43, CARBONIC ACID 4-(2-OXO-4-PHENOXY- CARBONYLAMINO-2H-PYRI- MIDIN-1-YL)-[1,3]DI- OXOLAN-2-YLMETH- YL ESTER PHENYL ESTER]
- Factor (Resistance Factor = Ratio of dCK- on Wild-type CCRF-CEM): 1,000,000

Structure (SMILES): O=C(Nc1ccn([C@@H]2CO[C@H](CO)O2)c(=O)n1)Oc1ccccc1 [Compound 44, [1-(2-HYDROXYMETHYL-[1,3]DI- OXOLAN-4-YL)-2-OX- O-1,2-DIHYDRO-PYRI- MIDIN-4-YL]-CARBAMIC ACID PHENYL ESTER]
- Factor (Resistance Factor = Ratio of dCK- on Wild-type CCRF-CEM): 1,300

Structure (SMILES): CCOC(=O)Nc1ccn([C@@H]2CO[C@H](CO)O2)c(=O)n1 [Compound 45, [1-(2-HYDROXYMETHYL-[1,3]DI- OXOLAN-4-YL)-2-OX- O-1,2-DIHYDRO-PYRI- MIDIN-4-YL]-CARBAMIC ACID ETHYL ESTER]
- Factor (Resistance Factor = Ratio of dCK- on Wild-type CCRF-CEM): 63

Structure (SMILES): CCOC(=O)Nc1ccn([C@@H]2CO[C@H](COC(=O)OCC)O2)c(=O)n1 [Compound 47, CARBONIC ACID 4-(4-ETH- OXYCARBONYLAMINO-2-OX- O-2H-PYRIMIDIN-1-YL)-[1,3]DI- OXOLAN-2-YL- METHYL ESTER ETHYL ESTER]
- Factor (Resistance Factor = Ratio of dCK- on Wild-type CCRF-CEM): 34

Structure (SMILES): Nc1ccn([C@@H]2CO[C@H](COC(=O)Cc3ccccc3)O2)c(=O)n1 [Compound 52, (2S,4S)-2-PHENYL- ACETOXYMETHYL-4-CYTO- SIN-1′-YL-1,3-DI- OXOLANE]
- Factor (Resistance Factor = Ratio of dCK- on Wild-type CCRF-CEM): 400

Structure (SMILES): Nc1ccn([C@@H]2CO[C@H](COCOCc3ccccc3)O2)c(=O)n1 [Compound 56, 4-AMINO-1-(2-BENZYLOXY- METHOXYMETHYL-[1,3]DI- OXOLAN-4-YL)-1H-PYRI- MIDIN-2-ONE]
- IC50 (MCF7, read-out: IC50 in μM (3H-TdR incorporation at 72 hr) MCF-7 24 h, MCF-7 human breast carcinoma, 24 h exposure to drug, wash, another 48 hr): 2 µM
- IC50 [1]: 7 µM

Structure (SMILES): COc1ccc(OC(=O)Nc2ccn([C@@H]3CO[C@H](COC(=O)Oc4ccc(OC)cc4)O3)c(=O)n2)cc1 [Compound 63, CARBONIC ACID 4-[4-(4-METH- OXY-PHENOXY- CARBONYLAMINO)-2-OX- O-2H-PYRIMIDIN-1-YL]-[1,3]DI- OXOLAN-2-YLMETHYL ESTER 4-METH- OXY-PHENYL ESTER]
- Factor (Resistance Factor = Ratio of dCK- on Wild-type CCRF-CEM): 2,778

Structure (SMILES): CCCCC(C)C(=O)OC[C@H]1OC[C@@H](n2ccc(/N=C/N(C)C)nc2=O)O1 (stereo partly drawn) [Compound 64, (2S,4S)-2-(2″-METHYL-HEXANO- ICOXYMETHYL)-4-(4′-NN-DI- METHYLAMINOMETHYLENE-CYTO- SIN-1′-YL)-1,3-DI- OXOLANE]
- Factor (Resistance Factor = Ratio of dCK- on Wild-type CCRF-CEM): 2,000

Structure (SMILES): CC(C)OC(=O)OCOC[C@H]1OC[C@@H](n2ccc(N)nc2=O)O1.O=C(O)C(F)(F)F.O=C(O)C(F)(F)F [Compound 68, CARBONIC ACID 4-(4-A- MINO-2-OXO-2H-PYRI- MIDIN-1-YL)-[1,3]DI- OXOLAN-2-YL- METHOXYMETHYL ESTER ISOPROPYL ESTER TRIFLUOROACETIC ACID SALT]
- Factor (Resistance Factor = Ratio of dCK- on Wild-type CCRF-CEM): 3,333

Structure (SMILES): CC(C(=O)OC[C@H]1OC[C@@H](n2ccc(N)nc2=O)O1)c1ccccc1 (stereo partly drawn) [Compound 69, (2S,4S)-2-(2″-METHYL- PHENYLACETOXY)METH- YL-4-CYTOSIN-1′-YL-1,3-DI- OXOLANE]
- IC50 [1]: 0.045 µM

Structure (SMILES): N=C(OC[C@H]1OC[C@@H](n2ccc(N)nc2=O)O1)C(Cl)(Cl)Cl [Compound 79, 2,2,2-TRICHLORO-ACETI- MIDIC ACID 4-(4-A- MINO-2-OXO-2H-PYRI- MIDIN-1-YL)-[1,3]DI- OXOLAN-2-YL- METHYL ESTER]
- IC50 [2]: 63 µM
- Factor (Resistance Factor = Ratio of dCK- on Wild-type CCRF-CEM): 4,500

Structure (SMILES): COC(=O)CCCC(=O)Nc1ccn([C@@H]2CO[C@H](CO)O2)c(=O)n1 [Compound 81, 4-[1-(2-HYDROXYMETHYL-[1,3]DI- OXOLAN-4-YL)-2-OX- O-1,2-DIHYDRO-PYRI- MIDIN-4-YL- CARBAMOYL]-BUTYRIC ACID METHYL ESTER]
- Factor (Resistance Factor = Ratio of dCK- on Wild-type CCRF-CEM): 83

Structure (SMILES): Nc1ccn([C@@H]2CO[C@H](COC(=O)CCCCCNCc3ccccc3)O2)c(=O)n1 [Compound 83, 6-Benzylamino-hexanoic acid 4-(4-amino-2-oxo-2H-pyri-midin-1-yl)-[1,3]di-oxolan-2-yl-methyl ester bis trifluoroacetate salt]
- Factor (Resistance Factor = Ratio of dCK- on Wild-type CCRF-CEM) (bis trifluoroacetate salt): 4,545

Structure (SMILES): Nc1ccn([C@@H]2CO[C@H](COC(=O)CCCCCNCc3ccccc3)O2)c(=O)n1 [Compound 84, 6-Benzylamino-hexanoic acid 4-(4-amino-2-oxo-2H-pyri-midin-1-yl)-[1,3]di-oxolan-2-ylmethyl ester]
- IC50 [2]: 60 µM
- Factor (Resistance Factor = Ratio of dCK- on Wild-type CCRF-CEM): 5,000

Structure (SMILES): Nc1ccn([C@@H]2CO[C@H](CO[C@@H]3O[C@H](CO)[C@@H](O)[C@H]3O)O2)c(=O)n1.O=C(O)C(F)(F)F [Compound 85, 4-AMINO-1-[2-(3,4-DI- HYDROXY-5-HYDROXY- METHYL-TETRA- HYDROFURAN-2-YLOXY- METHYL)-[1,3]DI- OXOLAN-4-YL]-1HPYIMI- DIN-2-ONE, TRIFLUOROACETIC ACID SALT]
- Factor (Resistance Factor = Ratio of dCK- on Wild-type CCRF-CEM): 38

Structure (SMILES): O=C(O)C(F)(F)F.O=c1nc(NC/C=C/c2ccccc2)ccn1[C@@H]1CO[C@H](CO)O1 [Compound 89, 1-(2-HYDROXYMETHYL-[1,3]DI- OXOLAN-4-YL)-4-(3-CIN- NAMYL)-1H-PYRI- MIDIN-2-ONE TRIFLUORO-ACETATE SALT]
- Factor (Resistance Factor = Ratio of dCK- on Wild-type CCRF-CEM): 40

Structure (SMILES): Nc1ccn([C@@H]2CO[C@H](COC/C=C/c3ccccc3)O2)c(=O)n1.O=C(O)C(F)(F)F [Compound 90, 4-AMINO-1-[2-(3-CIN- NAMYLOXYMETHYL)-[1,3]DI- OXOLAN-4-YL]-1H-PYRI- MIDIN-2-ONE TRIFLUOROACETATE SALT]
- Factor (Resistance Factor = Ratio of dCK- on Wild-type CCRF-CEM): 1.5

Structure (SMILES): CC(OC[C@H]1OC[C@@H](n2ccc(N)nc2=O)O1)OC1CCCCC1 (stereo partly shown) [Compound 92, 4-AMINO-1-[2-(1-CYCLO- HEXYLOXY-ETH- OXYMETHYL)-[1,3]DI- OXOLAN-4-YL]-1H-PYRI- MIDIN-2-ONE]
- Factor (Resistance Factor = Ratio of dCK- on Wild-type CCRF-CEM): 77

Structure (SMILES): CCCCC(CC)C(=O)Nc1ccn([C@@H]2CO[C@H](CO)O2)c(=O)n1 (stereo partly shown) [Compound 99, 2-ETHYL-HEXANOIC ACID [1-(2-HYDROXYMETHYL-[1,3]DI- OXOLAN-4-YL)-2-OX- O-1,2-DIHYDRO-PYRI- MIDIN-4-YL]-AMIDE]
- Factor (Resistance Factor = Ratio of dCK- on Wild-type CCRF-CEM): >20

Structure (SMILES): O=C(Nc1ccn([C@@H]2CO[C@H](COC(=O)C34CC5CC(CC(C5)C3)C4)O2)c(=O)n1)OCc1ccccc1 [Compound 101, ADAMANTANE-1-CARBOXYLIC ACID 4-(4-BENZYL- OXYCARBONYLAMINO-2-OX- O-2H-PYRIMIDIN-1-YL)-[1,3]DI- OXOLAN-2-YLMETHYL ESTER]
- Factor (Resistance Factor = Ratio of dCK- on Wild-type CCRF-CEM): 44

Structure (SMILES): O=C(Nc1ccn([C@@H]2CO[C@H](COC(=O)C34CC5CC(CC(C5)C3)C4)O2)c(=O)n1)C12CC3CC(CC(C3)C1)C2 [Compound 102, ADAMANTANE-1-CARBOXYLIC ACID 4-{4-[(ADAMANTANE-1-CAR- BONYL)-AMINO]-2-OX- O-2H-PYRIMIDIN-1-YL}-[1,3]DI- OXOLAN-2-YLMETHYL ESTER]
- Factor (Resistance Factor = Ratio of dCK- on Wild-type CCRF-CEM): 27

Structure (SMILES): O=C(Nc1ccn([C@@H]2CO[C@H](COC(=O)Oc3ccc(Cl)cc3)O2)c(=O)n1)Oc1ccc(Cl)cc1 [Compound 103, CARBONIC ACID 4-[4-(4-CHLORO-PHENOXY- CARBONYLAMINO)-2-OX- O-2H-PYRIMIDIN-1-YL]-[1,3]DI- OXOLAN-2-YLMETHYL ESTER 4-CHLORO-PHENYL ESTER]
- Factor (Resistance Factor = Ratio of dCK- on Wild-type CCRF-CEM): 4,545

Structure (SMILES): O=C(Nc1ccn([C@@H]2CO[C@H](CO)O2)c(=O)n1)Oc1ccc(Cl)cc1.O=C(O)C(F)(F)F [Compound 104, [1-(2-HYDROXYMETHYL-[1,3]DI- OXOLAN-4-YL)-2-OX- O-1,2-DIHYDRO-PYRI- MIDIN-4-YL]-CARBAMIC ACID 4-CHLORO-PHENYL ESTER TRIFLUOROACETATE SALT]
- Factor (Resistance Factor = Ratio of dCK- on Wild-type CCRF-CEM): >476

Structure (SMILES): Nc1ccn([C@@H]2CO[C@H](COC(=O)Oc3ccc(Cl)cc3)O2)c(=O)n1.O=C(O)C(F)(F)F [Compound 105, CARBONIC ACID 4-(4-A- MINO-2-OXO-2H-PYRI- MIDIN-1-YL)-[1,3]DI- OXOLAN-2-YLMETHYL ESTER 4-CHLORO-PHENYL ESTER TRIFLUOROACETATE SALT]
- Factor (Resistance Factor = Ratio of dCK- on Wild-type CCRF-CEM): 2 393

Structure (SMILES): O=C(NCc1ccccc1)Nc1ccn([C@@H]2CO[C@H](CO)O2)c(=O)n1 [Compound 108, 1-BENZYL-3-[1-(2-HYDROXY- METHYL-[1,3]DI- OXOLAN-4-YL)-2-OX- O-1,2-DIHYDRO-PYRI- MIDIN-4-YL]-UREA]
- Factor (Resistance Factor = Ratio of dCK- on Wild-type CCRF-CEM): >29
